Entries after “also recorded” stand apart in the source; their conditions may differ.
Columns and labels:
TDP-431-260 [1] = molecular target: T1, TDP-431-260 (Homo sapiens, UniProt Q13148); experiment: STD-NMR screening of compound binding to TDP-43 1-260; conditions: 500 μM compound, 5 μM protein
T1 construct: Human TDP-431-260 and TDP43102-269 were expressed as described in our previous studies; made in house
Description: (§1) FIG. 2. STD-NMR screening for compounds. A. Two different constructs were used for STD-NMR screening. 1D ^1H STD NMR showing on-resonance difference spectrum of 500 μM of compounds nTRD09-16 (B) or nTRD19-28 (C) with 5 μM TDP431-260. D. Positive hits from the first round of STD-NMR screening were tested against TDP43102-269 in the same conditions. Asterisks indicate positive signal.
(§2) Saturation transfer difference nuclear magnetic resonance (STD-NMR) spectroscopy was then used to screen the binding of the compounds to TDP-431-260. As a negative control, binding to TDP43102-269 lacking the NTD was also determined (FIG. 2A). […]
(§3) Saturation Transfer Difference Nuclear Magnetic Resonance (STD-NMR). Spectroscopy for small molecule binding. 1D ^1H STD-NMR was performed exactly as previously described (see, Frangois-Moutal, L.; et al., ACS Chem. Biol. 2019, 14, 2006-2013; Frangois-Moutal, L.; et al., ACS Chem. Biol. 2018, 13, 3000-3010).

TDP43102-269 = molecular target: T2, TDP43102-269 (Homo sapiens, UniProt Q13148); experiment: STD-NMR negative control on TDP43 102-269 lacking the NTD; format: binding; conditions: same conditions, negative control construct
T2 construct: made in house
T2 sequence (Q13148 102-269): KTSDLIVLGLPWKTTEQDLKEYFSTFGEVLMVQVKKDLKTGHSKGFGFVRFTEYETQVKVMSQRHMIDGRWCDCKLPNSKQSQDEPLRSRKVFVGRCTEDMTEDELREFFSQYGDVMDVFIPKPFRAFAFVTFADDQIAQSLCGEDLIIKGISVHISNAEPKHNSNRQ
Description: as §1, §2, §3

TDP-431-260 [2] = molecular target: T1, TDP-431-260; experiment: 2D 15N-HSQC NMR of TDP-43 1-260 with compound; format: binding
Description: 2D ^15N-HSQC NMR spectrum of each positive hit was tested to further define the binding sites of the small molecule interactions with TDP-43 (FIG. 9). Using TDP-431-260, small molecules were added at a 4:1 molar ratio.
(§4) To further characterize where nTRD22 binds on TDP-43, perturbations were measured using a 2D ^15N-HSQC NMR with increasing concentrations of nTRD22, up to a 8:1 molar ratio of nTRD22:TDP-431-260 (FIG. 4). […] To determine if these shifts were due to direct binding of nTRD22 to TDP-43102-269 (RRM region), a 2D ^15HSQC-NMR on TDP43102-269 with nTRD22 at a 4:1 molar ratio was collected (FIG. 4D, E).
(§5) Heteronuclear Single Quantum Correlation-NMR (HSQC-NMR). NMR spectra were acquired in 40 mM HEPES pH 6.5, 500 mM NaCl, 4 mM DTT with 10% D20 at 100 μM protein concentrations using 5 mm Shigemi NMR tubes. NMR data were collected at 298 K on a Bruker Avance NEO 600 MHz and 800 MHz spectrometers with TCI-H&F/C/N probe. NMR processing and analysis was done using NMRpipe, NMRDraw and NMRFAM-Sparky. Transverse relaxation optimized spectroscopy (TROSY) was used for all HSQC experiments.

[3] = molecular target: T3, TDP-43102-269 (RRM region) (Homo sapiens, UniProt Q13148); experiment: 2D 15N-HSQC NMR of TDP43 102-269 (RRM region) with compound; format: binding; conditions: 4:1 molar ratio
T3 construct: made in house
T3 sequence (Q13148 102-269 limits assumed): as the sequence (Q13148 102-269) above
Description: as §4, §5

TDP-431-260 [4] = molecular target: T1, TDP-431-260; experiment: Microscale thermophoresis (MST); format: binding; conditions: NT-647 labeled TDP431-260, 0.03 μM-1 mM compound, mean±SD n=3; read-out: apparent Kd
Description: FIG. 3. Modeling of binding and affinity of nTRD22 for TDP-43. A. Structure of N-(2-(3-hydroxypiperidin-1-yl)ethyl)-5-((3-(trifluoromethyl)phenoxy)methyl)isoxazole-3-carboxamide (nTRD22). B. 2D representation of nTRD22 binding pocket in TDP-43 NTD. C. MST values from thermographs of NT-647 labeled TDP431-260 in presence of increasing concentrations (0.03 μM-1 mM) of nTRD22 were used to determine dissociation constant for binding of nTRD22 to TDP431-260. […] Data is presented as mean±SD (n=3).
In-silico docking of nTRD22 predicted interactions with Q3, Y43, S48, G59, and A66 (FIG. 3A). ^1H-NMR of nTRD22 was used to evaluate the on-resonance energy transfer from STD-NMR of nTRD22 with TDP-431-260. The peaks seen in the STD-NMR spectrum were in the region of the benzyl group (ii, 6.9-7.2 ppm) (FIG. 2C) confirming the […] interaction of the benzene group of nTRD22 with Tyr43, predicted by virtual screening.
Microscale Thermophoresis (MST). Microscale thermophoresis experiments were performed using a NanoTemper Monolith Instrument (NT.115), similarly to Frangois-Moutal, L.; et al., ACS Chem. Biol. 2019, 14, 2006-2013.

[5] = molecular target: T4, TDP-431-260 binding to its canonical RNA sequence (UG6) (Homo sapiens, UniProt Q13148); experiment: Amplified luminescent proximity homogeneous alpha assay (ALPHA), RNA/TDP-43 disruption; conditions: TDP-431-260-His 0.75 nM, biotinylated-UG6 RNA 0.6 nM; read-out: IC50 of disruption of TDP-431-260 / UG6 RNA interaction
T4 construct: TDP-431-260-His (0.75 nM) and a single concentration of biotinylated-UG6 RNA (0.6 nM); made in house
T4 sequence (Q13148 1-260 limits assumed): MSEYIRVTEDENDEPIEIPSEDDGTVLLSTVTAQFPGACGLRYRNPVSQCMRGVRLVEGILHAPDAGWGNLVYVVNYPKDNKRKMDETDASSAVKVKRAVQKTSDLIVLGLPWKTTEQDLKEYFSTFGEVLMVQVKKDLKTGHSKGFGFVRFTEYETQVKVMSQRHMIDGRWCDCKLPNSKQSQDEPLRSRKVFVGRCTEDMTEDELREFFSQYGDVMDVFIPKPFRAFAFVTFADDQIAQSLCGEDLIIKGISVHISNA
Description: FIG. 5. RNA/TDP-43 disruption by nTRD22. A concentration-dependent curve was obtained for nTRD22's disruption of nucleic acid-TDP-431-260 interaction at a single RNA concentration (0.6 nM). Data is represented as mean±SEM (n=3).
To define which residues in the RRM domains were affected, the chemical-shift perturbations (CSP) induced by nTRD22 were mapped onto the known structure of TDP-43102-269 (PDB: 4bs2^15) using a color gradient (FIG. 4F,G). […] More precisely, L106/1107 and G148/V150 are part of RNP-2 and RNP-1 of RRM1 respectively, while C196 is part of RNP-2 in RRM2^16. Moreover, C173 is also shown to be affected in presence of RNA^15. […] It should be noted that in repeated experiments, different residues are shifted and although one representative spectrum is shown here (FIG. 4), the average shift from three experiments are also reported (FIG. 10). […] To test this, an amplified luminescent proximity homogeneous (alpha) assay recently developed for another compound targeting TDP-43^17 was used. TDP-431-260 binding to its canonical RNA sequence (UG6) was measured with ranging concentrations of compound and nTRD22 was able to inhibit 50% of the interaction with an IC50 of ˜100 μM (FIG. 5).
Amplified luminescent proximity homogeneous alpha assay (ALPHA). […]

TDP43-EGFP = molecular target: T5, TDP43-EGFP (Homo sapiens, UniProt Q13148); experiment: TDP43-EGFP in rodent primary cortical neurons, automated fluorescence microscopy; format: cell-based, rat; conditions: 5 to 100 μM
T5 construct: expressed in transfected cells; host or cells: primary cortical neurons from embryonic day 20-21 Long Evans rat pups
T5 sequence (Q13148 whole entry): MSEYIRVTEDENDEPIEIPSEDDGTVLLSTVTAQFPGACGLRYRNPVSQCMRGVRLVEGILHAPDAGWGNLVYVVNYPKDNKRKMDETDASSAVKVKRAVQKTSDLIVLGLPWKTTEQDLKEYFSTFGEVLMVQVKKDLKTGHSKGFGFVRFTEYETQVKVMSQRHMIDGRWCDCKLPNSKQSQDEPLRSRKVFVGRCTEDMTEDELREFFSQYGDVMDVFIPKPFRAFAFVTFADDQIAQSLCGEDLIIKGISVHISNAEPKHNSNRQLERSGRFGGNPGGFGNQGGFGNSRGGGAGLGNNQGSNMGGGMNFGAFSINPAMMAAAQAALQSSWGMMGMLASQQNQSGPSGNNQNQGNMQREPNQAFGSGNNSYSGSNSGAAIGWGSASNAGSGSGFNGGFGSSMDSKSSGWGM
Description: (§6) FIG. 6. nTRD22 effect on primary cortical neurons. Confocal images of rodent primary cortical neurons with transfected TDP43-EGFP with A. DMSO, or B. […] nTRD22. Quantitation of GFP signal in TDP-43-EGFP (C) or EGFP (D) transfected primary neurons treated with increasing concentration of nTRD22 or DMSO. Data is presented as mean±SEM (n≥183 neurons from 8 technical and 3 biological replicates). Statistical difference was assessed by a Kruskal-Wallis test (*** p<0.001; **p=0.01).
(§7) To test this, TDP-43 fused to enhanced green fluorescent protein (TDP43-EGFP) was expressed in rodent primary cortical neurons, applied nTRD22 at concentrations ranging from 5 to 100 μM, and imaged GFP positive cells by automated fluorescence microscopy^1819. […] No changes in the fluorescence of control cells transfected with EGFP was observed (FIG. 6D).
(§8) Cell culture and transfection. […]
(§9) Fluorescence microscopy. […]
(§10) Image analysis. Custom ImageJ/Fiji macros and Python scripts (described in PMC6050042) were used to identify neurons and draw regions of interest (ROIs) based upon size, morphology, and fluorescence intensity. Additional scripts were used to identify and draw regions of interest (ROIs) surrounding each cell, and measure fluorescence intensity within individual ROIs. […]

EGFP = EGFP control-transfected rodent primary cortical neurons, fluorescence; format: cell-based, rat; conditions: 5 to 100 μM
Description: as §6, §7, §8, §9, §10

[6] = tested on: Drosophila overexpressing TDP-43; experiment: Climbing (negative geotaxis) assay in Drosophila model of ALS overexpressing TDP-43; format: in vivo; conditions: fly food supplemented with 50 μM

T1 sequence (Q13148 1-260 limits assumed): as the sequence (Q13148 1-260 limits assumed) above

SMILES: O=C(NCCN1CCCC(O)C1)c1cc(COc2cccc(C(F)(F)F)c2)on1 (stereo not drawn) [nTRD22, N-(2-(3-hydroxypiperidin-1-yl)ethyl)-5-((3-(trifluoromethyl)phenoxy)methyl)isoxazole-3-carboxamide]
- STD-NMR binding to TDP-431-260 (TDP-431-260 [1]): positive hits
- STD-NMR binding to TDP43102-269 (lacking NTD) (TDP43102-269): did not
- 2D 15N-HSQC: aggregation / chemical shift perturbations (TDP-431-260 [2]; compound:protein 4:1 molar ratio, 100 μM protein): no protein aggregation with visible chemical shift perturbations
- 2D 15N-HSQC chemical shifts on titration (TDP-431-260 [2]; increasing concentrations up to 8:1 molar ratio nTRD22:TDP-431-260): the majority of them occurring in the RRM region of the protein
- 2D 15N-HSQC chemical shifts on TDP43102-269 [3]: No shifts were observed
- Kd (TDP-431-260 [4]): 145 ± 3 µM
- IC50 [5]: ~100 µM
- TDP43-EGFP steady state levels (GFP signal) (TDP43-EGFP): dose-dependent reduction
- intranuclear TDP43-EGFP droplet-like structures (TDP43-EGFP): formation of intranuclear TDP43-EGFP droplet-like structures
- fluorescence of control cells transfected with EGFP (EGFP): No changes
- climbing / motor performance in young (5-6 dpe) and aged (19-20 dpe) flies ([6]; versus DMSO 0.05%): rescue effect was increased in aged flies; also recorded: increased motor performance
- climbing / motor performance versus DMSO treated or naive flies ([6]; n=60): significantly able to rescue climbing defects; also recorded: increased motor performance

From US20230250094A1, “SMALL MOLECULE INHIBITORS OF TDP-43 ACTIVITY AND USES THEREOF” (Arizona Board of Regents on Behalf of the University of …, priority 2020, published 2023)
